Drawing on article PMC9760430, “A stapled chromogranin A-derived peptide homes in on tumors that express αvβ6 or αvβ8 integrins” (International Journal of Biological Sciences, 2023), this text covers EC50 for three compounds.

SMILES strings stand for the structures. Peptide text beside a SMILES is read from it. * marks the point of attachment. X1 = CC1(C)C(/C=C/C2=C(Oc3ccc(S(=O)(=O)O)cc3)C(=C\C=C3/N(CCCCCC(=O)NCCN4C(=O)CC(*)C4=O)c4ccc(S(=O)(=O)O)cc4C3(C)C)/CCC2)=[N+](CCCCS(=O)(=O)O)c2ccc(S(=O)(=O)[O-])cc21 Where only a bound is given, the exact number is not on record here.

The assay addresses T1, murine αvβ6 (Mus musculus, UniProt P43406+Q9Z0T9).
T1 construct: purchased Bio-Techne
T1 sequence (P43406 31-988 limits assumed): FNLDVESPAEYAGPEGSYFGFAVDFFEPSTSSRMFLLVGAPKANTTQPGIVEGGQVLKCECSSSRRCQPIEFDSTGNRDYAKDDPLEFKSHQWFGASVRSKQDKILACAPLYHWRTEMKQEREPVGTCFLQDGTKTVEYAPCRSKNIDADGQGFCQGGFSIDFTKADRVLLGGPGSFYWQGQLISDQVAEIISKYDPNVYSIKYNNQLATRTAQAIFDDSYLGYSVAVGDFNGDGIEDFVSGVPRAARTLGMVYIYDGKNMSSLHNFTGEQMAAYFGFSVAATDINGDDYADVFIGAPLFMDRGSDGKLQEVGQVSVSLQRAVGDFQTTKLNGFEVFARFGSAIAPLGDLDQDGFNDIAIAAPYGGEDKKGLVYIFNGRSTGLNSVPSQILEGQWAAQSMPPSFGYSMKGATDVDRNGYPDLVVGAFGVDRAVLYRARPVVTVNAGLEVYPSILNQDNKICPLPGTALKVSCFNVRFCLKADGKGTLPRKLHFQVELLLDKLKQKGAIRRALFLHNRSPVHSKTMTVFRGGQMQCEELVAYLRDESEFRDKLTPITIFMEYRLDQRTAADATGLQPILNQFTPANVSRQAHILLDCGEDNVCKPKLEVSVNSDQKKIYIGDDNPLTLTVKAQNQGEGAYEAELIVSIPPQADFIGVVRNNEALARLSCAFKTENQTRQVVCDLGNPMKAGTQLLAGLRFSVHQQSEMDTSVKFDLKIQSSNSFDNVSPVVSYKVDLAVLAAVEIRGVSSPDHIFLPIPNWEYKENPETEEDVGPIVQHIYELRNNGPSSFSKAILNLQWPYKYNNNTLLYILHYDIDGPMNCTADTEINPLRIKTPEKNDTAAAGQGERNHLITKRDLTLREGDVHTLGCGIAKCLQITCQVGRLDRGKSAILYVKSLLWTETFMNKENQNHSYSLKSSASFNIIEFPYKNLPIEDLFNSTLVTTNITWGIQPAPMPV
T1 sequence (Q9Z0T9 22-707 limits assumed): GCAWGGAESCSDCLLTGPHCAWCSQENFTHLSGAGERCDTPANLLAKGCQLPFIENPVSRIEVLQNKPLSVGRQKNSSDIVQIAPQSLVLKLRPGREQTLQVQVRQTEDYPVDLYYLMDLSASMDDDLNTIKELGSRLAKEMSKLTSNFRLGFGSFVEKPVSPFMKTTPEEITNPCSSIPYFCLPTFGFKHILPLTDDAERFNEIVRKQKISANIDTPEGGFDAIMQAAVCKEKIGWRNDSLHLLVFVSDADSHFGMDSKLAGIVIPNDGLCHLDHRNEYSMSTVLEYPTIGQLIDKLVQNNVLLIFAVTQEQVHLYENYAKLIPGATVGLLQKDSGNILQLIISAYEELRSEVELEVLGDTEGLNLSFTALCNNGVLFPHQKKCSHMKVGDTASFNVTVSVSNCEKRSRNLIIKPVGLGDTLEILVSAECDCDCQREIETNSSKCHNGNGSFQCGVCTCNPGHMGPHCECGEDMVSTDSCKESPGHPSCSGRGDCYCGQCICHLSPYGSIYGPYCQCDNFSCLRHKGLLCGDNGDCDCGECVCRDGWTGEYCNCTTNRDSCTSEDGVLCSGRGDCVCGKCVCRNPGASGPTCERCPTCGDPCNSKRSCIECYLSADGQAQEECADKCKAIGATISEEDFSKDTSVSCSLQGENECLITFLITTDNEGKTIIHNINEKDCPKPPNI
The assay can be described thus: direct integrin binding assay of peptide-IRDye conjugates, murine αvβ6-coated plates. Particulars: plates coated with recombinant murine αvβ6; conjugate 0.01-100 nM, 1 h; bound NIR fluorescence; mean ± SE, n = 3 experiments. As to the method:
The affinity of peptide-IRDye conjugates for αvβ6 and αvβ8 integrins was determined by a direct binding assay using microtiter plates coated with αvβ6 or αvβ8 (Bio-Techne). After 1 h of incubation, the plates were washed; bound fluorescence was quantified by scanning the plates with an Odyssey CLx near-infrared fluorescence imaging system (LI-COR).
A control conjugate with a cysteine in place of the peptide was also prepared in parallel. The identity of the purified products, called 5a-IRDye, 2a-IRDye, and Cys-IRDye, was confirmed by mass spectrometry analysis (Table S1). In addition, the purity and identity of 5a-IRDye was monitored by liquid chromatography–mass spectrometry (LC-MS). […]
that the product consist of a single peak at 230 and 735 nm with the expected molecular weight (purity >95%) (Figure S3A).
The simplified molecular-input line-entry system (SMILES) of 5a-, 2a-, Cys- and 5a-Scr- […]
The concentration of each conjugate was quantified by spectrophotometric analysis at 774 nm (molar absorption coefficient, 240,000 M-1, cm-1) (Figure S3B). The final yield of 5a-IRDye […]
Binding of peptide-IRDye conjugates to avb6 and avb8 integrin
The binding affinity of peptide-IRDye conjugates for human and murine avb6 and avb8 integrins was determined as follows: 96-well clear-bottom black microtiter plates (Corning® cat. 3601) were coated with 2 μg/ml avb6 or avb8 (50 µl/well), in Dulbecco’s phosphate-buffered saline containing Ca2+ and Mg2+ (DPBS) and left to incubate overnight at 4°C. […]
The binding of peptide-IRDye conjugates to BxPC-3, 5M7101, and HUVECs cells was analyzed as follows. […]
conjugates were added to the microtiterplates and incubated at room temperature for 1 h (see Experimental Section). After washing, bound fluorescence was measured using an Odyssey CLx (LI-COR) scanner. Representative images of the scanned plates and quantification of binding are shown. […]
Consider `CC[C@H](C)[C@H](NC(=O)[C@H](CCCNC(=N)N)NC(=O)[C@H](CCC(=O)O)NC(=O)[C@H](CCC(=O)O)NC(=O)CNC(=O)[C@H](CCCNC(=N)N)NC(=O)[C@H](CC(C)C)NC(=O)[C@@H](NC(=O)[C@H](CCC(=O)O)NC(=O)[C@H](Cc1ccccc1)NC(=O)[C@@H](N)CSC1CC(=O)N(CCNC(=O)CCCCCN2/C(=C\C=C3\CCCC(/C=C/C4=[N+](CCCCS(=O)(=O)O)c5ccc(S(=O)(=O)[O-])cc5C4(C)C)=C3Oc3ccc(S(=O)(=O)O)cc3)C(C)(C)c3cc(S(=O)(=O)O)ccc32)C1=O)[C@@H](C)O)C(=O)N[C@@H](CC(C)C)C(=O)N[C@@H](CO)C(=O)N[C@H](C(=O)N[C@@H](CC(C)C)C(=O)N[C@@H](CCCNC(=N)N)C(=O)N[C@@H](Cc1c[nH]cn1)C(=O)N[C@@H](CCC(N)=O)C(=O)N[C@@H](CC(N)=O)C(=O)N[C@@H](CC(C)C)C(=O)N[C@@H](CC(C)C)C(=O)N[C@@H](CCCCN)C(=O)N[C@@H](CCC(=O)O)C(=O)N[C@@H](CC(C)C)C(=O)N[C@@H](CCC(N)=O)C(=O)N[C@@H](CC(=O)O)C(N)=O)[C@@H](C)CC` (stereo partly drawn) [2a-IRDye] (H-C(X1)FETLRGEERILSILRHQNLLKELQD-NH2), for which the EC50 – broadly, the midpoint of the concentration-response curve – was over 100 nM.

Turning to `CC[C@H](C)[C@H](NC(=O)[C@H](CCCNC(=N)N)NC(=O)[C@H](CC(C)C)NC(=O)[C@H](CC(=O)O)NC(=O)CNC(=O)[C@H](CCCNC(=N)N)NC(=O)[C@H](CC(C)C)NC(=O)[C@@H](NC(=O)[C@H](CCC(=O)O)NC(=O)[C@H](Cc1ccccc1)NC(=O)[C@@H](N)CSC1CC(=O)N(CCNC(=O)CCCCCN2C(=CC=C3CCCC(C=CC4=[N+](CCCCS(=O)(=O)[O-])c5ccc(S(=O)(=O)O)cc5C4(C)C)=C3Oc3ccc(S(=O)(=O)O)cc3)C(C)(C)c3cc(S(=O)(=O)O)ccc32)C1=O)[C@@H](C)O)C(=O)N[C@@H](CC(C)C)C(=O)N[C@@H](CO)C(=O)N[C@H](C(=O)N[C@@H](CC(C)C)C(=O)N[C@@H](CCCNC(=N)N)C(=O)N[C@H]1Cc2cn(nn2)CCCC[C@@H](C(=O)N[C@@H](CCCCN)C(=O)N[C@@H](CCC(=O)O)C(=O)N[C@@H](CC(C)C)C(=O)N[C@@H](CCC(N)=O)C(=O)N[C@@H](CC(=O)O)C(N)=O)NC(=O)[C@H](CC(C)C)NC(=O)[C@H](CC(N)=O)NC(=O)[C@H](CCC(N)=O)NC1=O)[C@@H](C)CC` (stereo partly drawn) [5a-IRDye], the EC50 was found to be 0.9 ± 0.35 nM.

Take `CC1(C)C(/C=C/C2=C(Oc3ccc(S(=O)(=O)O)cc3)C(=C\C=C3/N(CCCCCC(=O)NCCN4C(=O)CC(SC[C@H](N)C(=O)O)C4=O)c4ccc(S(=O)(=O)O)cc4C3(C)C)/CCC2)=[N+](CCCCS(=O)(=O)O)c2ccc(S(=O)(=O)[O-])cc21` (stereo partly drawn) [Cys-IRDye]: the EC50 was over 100 nM.
